This assay deals with T1, recombinant human ALX receptor (Homo sapiens, UniProt P25090).
T1 construct: expressed in transfected cells; host or cells: HEK293 (HEK293-hALXR-Gα16)
T1 sequence (P25090 1-351): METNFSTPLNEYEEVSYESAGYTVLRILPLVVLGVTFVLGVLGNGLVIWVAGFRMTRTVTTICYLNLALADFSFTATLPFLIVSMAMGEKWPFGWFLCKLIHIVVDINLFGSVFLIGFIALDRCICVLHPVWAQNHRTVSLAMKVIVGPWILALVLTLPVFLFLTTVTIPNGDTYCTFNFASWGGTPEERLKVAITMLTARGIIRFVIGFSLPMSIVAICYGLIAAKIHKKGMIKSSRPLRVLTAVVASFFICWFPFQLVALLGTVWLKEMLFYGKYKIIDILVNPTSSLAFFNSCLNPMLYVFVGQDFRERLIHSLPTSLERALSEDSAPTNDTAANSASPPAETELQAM
Put plainly: Intracellular calcium measurements (FLIPR), ALX receptor agonistic activity. It is filed as cell-based. The note with it: HEK293-hALXR-Gα16 cells, Fluo-4 calcium signal, normalized to WKYMVm 10 nM. The method, boiled down:
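Agonist-induced calcium flux was read by FLIPR (488/540 nm) as baseline-subtracted peak emission, expressed relative to WKYMVm at 10 nM final. Cells used: HEK293-hALXR-Gα16, dye-loaded 60 min at 37° C. with 1 μM Fluo-4 AM before compound dose-response addition.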

13 compounds from patent US9663473B2 (Actelion Pharmaceuticals Ltd, priority 2013, dated 2017) can be followed below.

Structures are written as SMILES.

Usually EC50 stands for the midpoint of the concentration-response curve. Turning to `COc1ccc(C[C@@H](NC(=O)N[C@@H]2CCC[C@H]2O)c2nc3ccccc3[nH]2)cc1` [Example 113, 1-((R)-1-(1H-Benzo[d]imidazol-2-yl)-2-(4-methoxyphenyl)ethyl)-3-((1R,2R)-2-hydroxycyclopentyl)urea], the EC50 came out at 20 nM.
As for `COc1ccc(C[C@@H](NC(=O)N[C@H]2CCC[C@H]2O)c2nc3ccccc3[nH]2)cc1` [Example 114, 1-((R)-1-(1H-Benzo[d]imidazol-2-yl)-2-(4-methoxyphenyl)ethyl)-3-((1S,2R)-2-hydroxycyclopentyl)urea], the EC50 was found to be 190 nM.
Turning to `COc1ccc(C[C@@H](NC(=O)N[C@H]2CCC[C@@H]2O)c2nc3ccccc3[nH]2)cc1` [Example 115, 1-((R)-1-(1H-Benzo[d]imidazol-2-yl)-2-(4-methoxyphenyl)ethyl)-3-((1S,2S)-2-hydroxycyclopentyl)urea], the EC50 is 143 nM.
Turning to `COc1ccc(C[C@@H](NC(=O)NC2CC(C)(C)N(C)C(C)(C)C2)c2nc3ccccc3[nH]2)cc1` [Example 116, (R)-1-(1-(1H-Benzo[d]imidazol-2-yl)-2-(4-methoxyphenyl)ethyl)-3-(1,2,2,6,6-pentamethylpiperidin-4-yl)urea], the EC50 was determined as 63 nM.
Take `COc1ccc(C[C@@H](NC(=O)NC2CCCN(C)C2)c2nc3ccccc3[nH]2)cc1` (stereo partly drawn) [Example 117, 1-((R)-1-(1H-Benzo[d]imidazol-2-yl)-2-(4-methoxyphenyl)ethyl)-3-(1-methylpiperidin-3-yl)urea]: the EC50 was found to be 62 nM.
The result for `COc1ccc(C[C@@H](NC(=O)N[C@@H]2CCN(C(=O)OC(C)(C)C)C2)c2nc3ccccc3[nH]2)cc1` [Example 118, (R)-tert-Butyl 3-(3-((R)-1-(1H-benzo[d]imidazol-2-yl)-2-(4-methoxyphenyl)ethyl)ureido)pyrrolidine-1-carboxylate] reads 25 nM; that for `COc1ccc(C[C@@H](NC(=O)N[C@H]2CCN(C(=O)OC(C)(C)C)C2)c2nc3ccccc3[nH]2)cc1` [Example 119, (S)-tert-Butyl 3-(3-((R)-1-(1H-benzo[d]imidazol-2-yl)-2-(4-methoxyphenyl)ethyl)ureido)pyrrolidine-1-carboxylate], 539 nM.
The result for `COc1ccc(C[C@@H](NC(=O)N2CCC3CN(C(=O)OC(C)(C)C)CC32)c2nc3ccccc3[nH]2)cc1` (stereo partly drawn) [Example 120, tert-Butyl 1-(((R)-1-(1H-benzo[d]imidazol-2-yl)-2-(4-methoxyphenyl)ethyl)carbamoyl)hexahydropyrrolo[3,4-b]pyrrole-5(1H)-carboxylate] reads 57 nM; that for `COc1ccc(C[C@@H](NC(=O)N2CCC3C2CCN3C(=O)OC(C)(C)C)c2nc3ccccc3[nH]2)cc1` (stereo partly drawn) [Example 121, tert-Butyl 4-(((R)-1-(1H-benzo[d]imidazol-2-yl)-2-(4-methoxyphenyl)ethyl)carbamoyl)hexahydropyrrolo[3,2-b]pyrrole-1 (2H)-carboxylate], 704 nM; that for `COc1ccc(C[C@@H](NC(=O)N2CC3CCC2CN3)c2nc3ccccc3[nH]2)cc1` (stereo partly drawn) [Example 122, N—((R)-1-(1H-Benzo[d]imidazol-2-yl)-2-(4-methoxyphenyl)ethyl)-2,5-diazabicyclo[2.2.2]octane-2-carboxamide], 59 nM.
In the case of `O=C(N[C@H](Cc1ccc(Cl)cc1)c1nc2ccccc2[nH]1)N[C@H]1CC[C@H](O)CC1` [Example 123, 1-((R)-1-(1H-Benzo[d]imidazol-2-yl)-2-(4-chlorophenyl)ethyl)-3-(trans-4-hydroxycyclohexyl)urea], the EC50 came out at 44 nM.
With `COc1ccc(C[C@@H](NC(=O)N[C@H]2CC[C@H](O)CC2)c2nc3c(F)cccc3[nH]2)cc1` [Example 124, 1-((R)-1-(4-Fluoro-1H-benzo[d]imidazol-2-yl)-2-(4-methoxyphenyl)ethyl)-3-(trans-4-hydroxycyclohexyl)urea], the EC50 amounted to 174 nM.
In the case of `COc1ccc(C[C@@H](NC(=O)N[C@@H]2CCNC2)c2nc3ccccc3[nH]2)cc1` [Example 125, 1-((R)-1-(1H-Benzo[d]imidazol-2-yl)-2-(4-methoxyphenyl)ethyl)-3-((R)-pyrrolidin-3-yl)urea] it was 82 nM.
